The values below come from publication PMC12155470, “Novel Tetraene Macrodiolides Are Effective Inducers of Mitochondrial Apoptosis in Jurkat Cells” (International Journal of Molecular Sciences, 2025).

One series has as its system Jurkat. In words: In vitro cytotoxic activity, 7-AAD flow cytometry, Jurkat. The series is classed as cell-based, Human. The settings on record: 24 h incubation, mean ± SD, triplicate. An excerpt:
(§1) The investigation focused on the assessment of the synthesized compounds’ toxicities, utilizing a panel of six diverse cell lines. The selection of cells was based on the specific features of their metabolism, namely, Jurkat, K562, U937, and HL60 cells are suspension cultures of oncohematologic origin, and HEK293 is a conditionally normal line transformed by adenovirus and often used as control cells along with fibroblasts. The normal fibroblast line (Wi-38) utilized in the experiment was diploid and was obtained from the lung tissue of an aborted fetus. The total cytotoxic activity of 16 compounds was studied using flow cytometry.
(§2) Human cancer cell lines, including Jurkat, K562, U937, HL60, and fibroblasts (Wi-38), were obtained from the European Authentic Cell Culture Collection and further cultured according to established standard protocols using sterile methods. The cells were cultivated in RPMI 1640 (for Jurkat and K562) and DMEM (for Wi-38 and HEK293) media (Gibco, Billings, MT, USA), with the addition of […] glutamine, 10% FBS (Sigma, Kanagawa, Japan), and 100 U/mL penicillin–streptomycin (Sigma). All cell types were cultivated in a humidified atmosphere containing 5% CO₂ at a temperature of 37 °C. Subculturing was performed at two- to three-day intervals. The cells were subsequently seeded into 24-well plates at a density of 5 × 10^4 cells per well and incubated overnight. Subsequent subculturing was then performed at two-day intervals, with a seeding density of 1 × 10^5 cells per 24-well plate, using RPMI medium with 10% FBS [49].
(§3) The dissolution of the compounds tested was initially performed in dimethyl sulfoxide (DMSO) with an initial solution of 100 mM in 10% DMSO. Subsequently, the solution was diluted in a complete culture medium, namely, Dulbecco’s medium, modified Eagle’s medium (DMEM), or Roswell Park Memorial Institute medium (RPMI). Substances were added at concentrations of 10, 1, 100, 10, 1, and 0.1 μM on the day after seeding and incubated for 24 h. Following this, the cells were washed with a phosphate-buffered saline (PBS) solution and stained with 7AAD dye, as per the manufacturer’s protocol for flow cytometry. The CC50 value, which characterizes the parameters of toxicity (i.e., the concentration of the compound required for 50% inhibition of cell viability in vitro), was calculated. logC versus % inhibition was plotted, and statistical data processing was performed using Excel and GraphPad Prism v.8.0.2 (San Diego, CA, USA, 2019). The data obtained from three independent experiments were expressed as the mean of three measurements for each concentration, with the standard deviation indicated as well. These values were then relative to the control values (0.1% DMSO), which were taken as 100%.
(§4) 7-AAD (7-aminoactinomycin D) dye (eBioscience™, San Diego, CA, USA) was used to assess cell viability. Following incubation with the test compounds, the cells were harvested, washed with a phosphate–salt buffer (PBS), and subjected to centrifugation at 400× g for five minutes. The cell sediment was resuspended in 200 μL of staining buffer for flow cytometry (PBS without calcium and magnesium, 2.5% FBS) and stained with a 1 mM 7-AAD dye solution for 15 min in the dark at room temperature. Subsequently, all samples, including experimental and control groups, were analyzed using a BD FACSAria™ III Cell Sorter flow cytometer (Milpitas, CA, USA).
In general terms: Flow cytometry measures light scatter and fluorescence of single cells or particles in a stream.

In another series the test system is K562. In words: In vitro cytotoxic activity, 7-AAD flow cytometry, K562. The series is classed as cell-based, Human. The settings on record: 24 h incubation, mean ± SD, triplicate.
Source text: as §1, §2, §3, §4

A further series deals with U937. In words: In vitro cytotoxic activity, 7-AAD flow cytometry, U937. The settings on record: Homo sapiens, U-937, 24 h, 24 h incubation, mean ± SD, triplicate. The series is classed as cell-based, Human.
Source text: as §1, §2, §3, §4

A further series deals with HL60. In words: In vitro cytotoxic activity, 7-AAD flow cytometry, HL60. The settings on record: Homo sapiens, HL-60, 24 h incubation, mean ± SD, triplicate. The format is cell-based.
Source text: as §1, §2, §3, §4

Series [1] in a line: In vitro cytotoxic activity, 7-AAD flow cytometry, Hek293. The format is cell-based. The settings on record: human, HEK293 cells, conditionally normal line, 24 h incubation, mean ± SD.
Source text: as §1, §2, §3, §4

A short description of series [2]: In vitro cytotoxic activity, 7-AAD flow cytometry, normal fibroblasts. The settings on record: human, Wi-38 normal lung fibroblasts, normal fibroblasts Wi-38, 24 h incubation, mean ± SD, read-out: Fibrobl. (CC50). The series is classed as cell-based.
Source text: as §1, §2, §3, §4

For series [3], the system named is Jurkat cells. The series is described as follows: Mitodamage assay (MitoSense Red, Annexin V-CF488A, 7-AAD). The series is classed as cell-based, Human. The settings on record: compound at CC50 concentration, four hours. On the procedure:
To this end, MitoSense Red, a fluorescent dye that accumulates predominantly in mitochondria and responds to changes in membrane potential, was utilized. […] Two dyes commonly employed for detecting apoptosis in cells are annexin V and 7AAD. […] Therefore, the dissipation of mitochondrial membrane potential and the associated apoptosis process in Jurkat tumor cells were analyzed in response to exposure to synthesized macrodiolides. MitoSense Red, Annexin V-CF488A, and 7-AAD were used as dyes for this analysis (see Figure 3). A flow cytometry kit (FlowCellect™ MitoDamage Kit from Millipore, Hayward, CA USA) was utilized, as it facilitates a multiparametric evaluation of three markers of cell health. These markers include changes in mitochondrial potential (early apoptosis and cell stress), phosphatidylserine expression on the cell surface (late apoptosis), and membrane permeability (cell death). The method of the simultaneous detection of mitochondrial damage was performed according to the well-known technique.  Figure 3 Detection changes in mitochondrial membrane potential (ΔΨ) and coupled early and late apoptosis in Jurkat cells treated with compounds 9d, 8d, 7d, and 6d. Staurosporine and carbonyl cyanide-m-chlorophenylhydrazone were utilized as control compounds. The addition of all the tested compounds was executed at the CC50 concentration (refer to the provided table for the cytotoxicities of the synthesized compounds). The staining of cells was conducted using MitoSense Red, Annexin V-CF488A, and 7-AAD. The incubation period lasted for a duration of four hours. The presence of three *** (p < 0.001) and two asterisks ** (p < 0.005) indicates the significance of the observed differences between the values obtained in the control sample and the samples treated with the synthesized substances (comparison was performed by one-way ANOVA). All experiments were performed in triplicate.

Series [4] concerns Jurkat cells. In words: Cytochrome C assay (flow cytometry). The format is cell-based, Human. The settings on record: compound at CC50 concentration, 6 h (Figure 4; method says four hours). An excerpt:
The quantification of cytochrome c release from the mitochondria in apoptotic cells was used to detect the mitochondrial pathway of apoptosis in the cells by flow cytometry. This study employed a direct labeling method that utilized an anti-cytochrome cFITC antibody, an anti-IgG1-FITC isotype control, and optimized fixation, permeabilization, and blocking buffers to detect cytochrome c by flow cytometry (Luminex®, Austin, TX, USA). […] The Jurkat cells were exposed to test substances at concentrations corresponding to their 24-h CC50 in these cells for a period of four hours. Thereafter, analysis by flow cytometry (NovoCyte Flow Cytometry™ Agilent, San Diego, CA, USA) was conducted. The acquired data were processed using NovoExpress® software (version 1.6.2) (ACEA (Agilent, Santa Clara, CA, USA)).
Figure 4 Detection of cytochrome c in Jurkat cells stained with a FlowCellect Cytochrome c Kit. The control compound, carbonyl cyanide m-chlorophenylhydrazone (CCCP), was administered at a concentration equal to its CC50 value. Compound 9d was added to the sample cells at a CC50 concentration (see the table of cell viability). The cells were incubated for 6 h. We compared the numerical values to determine the reliability of the differences observed between the control sample and the samples treated with the synthesized substances. […]

In general, CC50 refers to the concentration that lowers cell viability or growth by half. As for `O=C1CCCCC/C=C\CC/C=C\CCCCCC(=O)OCCCCCC/C=C\CC/C=C\CCCCCCO1` [Compound 9d], the CC50 with Jurkat was 12.1 ± 1.77 nM; with Jurkat (Homo sapiens, Jurkat, 24 h), 11 nM; with K562, 11 ± 1.25 nM; in the series on K562 (Homo sapiens, K562, 24 h), 12.1 nM; in the series with U937, 12.2 ± 1.41 nM; in the series on HL60 it was 13.5 ± 1.21 nM. Also, the 50% cytotoxic concentration (CC50) at 24 h in series [1] amounted to 42.6 ± 4.31 nM; in series [2], 64.3 ± 5.81 nM. For the same compound, in the series with Jurkat cells [3] (Jurkat, Annexin V-CF488A/7-AAD), the “percentage of cells in apoptosis” value is 50.34%. Also, the “Jurkat cells with reduced mitochondrial membrane potential (Δψ dissipation)” value with Jurkat cells [3] (MitoSense Red) is 77.42%. Also, the “cells releasing cytochrome c into the cytoplasm (Cytochrome loss %)” value in the series with Jurkat cells [4] was determined as 68.22%.

In the case of `N#CC(C#N)=NNc1cccc(Cl)c1` [CCCP, carbonyl cyanide-m-chlorophenylhydrazone, reference compound], in the series with Jurkat cells [4], the “cells releasing cytochrome c into the cytoplasm (Cytochrome loss %)” value is recorded as 79.35%.
